# From the supplement of paper PMC12137928
# Structures can show the parent of a compound that is named as a salt.
# System: HCT116
# Details: 72 h
# Summary of the method: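 HCT116 cells were plated at 250 per well in 1536-well plates and allowed 5 h to attach. CellTiter-Glo luminescence was normalized to vehicle as 0% and positive control as -100%, followed by pattern correction. Four-parameter Hill fits provided IC50 and maximal efficacy.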
Compound,IC50 cell viability (ICRF193 0 nM),IC50 cell viability (ICRF193 200 nM)
CO[C@H]1C[C@H](O[C@H]2[C@H](C)[C@@H](O[C@@H]3O[C@H](C)C[C@H](N(C)C)[C@H]3OC(C)=O)[C@@H](C)C[C@@]3(CO3)C(=O)[C@H](C)[C@@H](OC(C)=O)[C@@H](C)[C@@H](C)OC(=O)[C@@H]2C)O[C@@H](C)[C@@H]1OC(C)=O [Troleandomycin],> 45.8 µM,> 45.8 µM
NC(CO)(CO)CO [Tromethamine],> 45.8 µM,> 45.8 µM
CCN(Cc1ccncc1)C(=O)C(CO)c1ccccc1 (stereo unspecified) [Tropicamide],> 45.8 µM,> 45.8 µM
CN1[C@@H]2CC[C@H]1C[C@@H](OC(=O)c1c[nH]c3ccccc13)C2 [Tropisetron],> 45.8 µM,> 45.8 µM
O=C(O[C@H]1C[C@H]2CC[C@@H](C1)[N+]21CCCC1)C(O)(c1ccccc1)c1ccccc1 [Trospium chloride],> 45.8 µM,> 45.8 µM
Nc1ccn([C@@H]2CO[C@H](CO)O2)c(=O)n1 [Troxacitabine],> 45.8 µM,> 45.8 µM
COc1cc(C(=O)NC2CCCNC2)cc(OC)c1OC (stereo unspecified) [Troxipide],> 45.8 µM,> 45.8 µM
CC(C)(C)NCC(O)c1ccccc1Cl (stereo unspecified) [Tulobuterol hydrochloride],> 45.8 µM,> 45.8 µM
CC(C)C[C@H](NC(=O)[C@@H](O)[C@H](N)Cc1ccccc1)C(=O)O [Ubenimex],> 45.8 µM,> 45.8 µM
OC(c1ccccc1)(c1ccccc1)C12CC[N+](CCOCc3ccccc3)(CC1)CC2 [Umeclidinium bromide],> 45.8 µM,> 45.8 µM
Oc1ncc(N(CCCl)CCCl)c(O)n1 [Uracil mustard],> 45.8 µM,> 45.8 µM
O=c1cc[nH]c(=O)[nH]1 [Uracil],> 45.8 µM,> 45.8 µM
COc1ccccc1N1CCN(CCCNc2cc(=O)n(C)c(=O)n2C)CC1 [Urapidil hydrochloride],> 45.8 µM,> 45.8 µM
CC(=O)OC[C@H]1O[C@@H](n2ccc(=O)[nH]c2=O)[C@H](OC(C)=O)[C@@H]1OC(C)=O [Uridine triacetate],> 45.8 µM,> 45.8 µM
C[C@H](CCC(=O)O)[C@H]1CC[C@H]2[C@@H]3[C@@H](O)C[C@@H]4C[C@H](O)CC[C@]4(C)[C@H]3CC[C@]12C [Ursodiol],> 45.8 µM,> 45.8 µM
CCCCC(=O)N(Cc1ccc(-c2ccccc2-c2nnn[nH]2)cc1)[C@H](C(=O)O)C(C)C [VALSARTAN],> 45.8 µM,> 45.8 µM
NCCC[C@H](N)CC(=O)N[C@H]1CNC(=O)[C@H]([C@H]2C[C@H](O)NC(N)=N2)NC(=O)/C(=C/NC(N)=O)NC(=O)[C@H](CO)NC(=O)[C@H](CO)NC1=O [VIOMYCIN SULFATE],> 45.8 µM,> 45.8 µM
O=C(O)C[C@@H]1CC[C@H](NC(=O)Cc2cccs2)B(O)O1 [Vaborbactam],> 45.8 µM,> 45.8 µM
CC(C)[C@H](N)C(=O)OCCOCn1cnc2c(=O)nc(N)[nH]c21 [Valaciclovir],> 45.8 µM,> 45.8 µM
COc1cc2c(cc1OC)[C@H]1C[C@@H](OC(=O)[C@@H](N)C(C)C)[C@H](CC(C)C)CN1CC2 [Valbenazine],> 45.8 µM,> 45.8 µM
Cc1onc(-c2ccccc2)c1-c1ccc(S(N)(=O)=O)cc1 [Valdecoxib],> 45.8 µM,> 45.8 µM
CC(C)[C@H](N)C(=O)OCC(CO)OCn1cnc2c(=O)[nH]c(N)nc21 (stereo partly specified) [Valganciclovir·HCl],> 45.8 µM,> 45.8 µM
CCCC(CCC)C(=O)O [Valproic acid sodium salt],> 45.8 µM,> 45.8 µM
